The source made the active and inactive calls. The rule behind the calls is not given here.
Legend:
[1] = Negative inotropic activity assessed as decrease in developed tension in isolated guinea pig left atrium; type: functional, tissue-based; conditions: Cavia porcellus, Cardiac atrium
Aorta [2] = assay: Inhibition of calcium-induced contraction of potassium ion depolarized guinea pig aortic strips at 100 uM; type: functional; conditions: Cavia porcellus
[3] = Negative inotropic activity assessed as decrease in developed tension in isolated guinea pig left atrium at 50 uM relative to control; type: functional, Cavia porcellus, Cardiac atrium; parameters: scale not given: the % may be the effect or the level left
Cavia porcellus = species: Cavia porcellus; assay: (§1) Activity against alternating current-induced arrhythmia in guinea pig left atrium at 100 uM; type: functional; conditions: Cardiac atrium
[4] = Negative chronotropic activity assessed as decrease in atrial rate in isolated guinea pig right atrium at 100 uM relative to control; type: functional, Cavia porcellus, Cardiac atrium; parameters: scale not given: the % may be the effect or the level left
[5] = Activity against alternating current-induced arrhythmia in guinea pig left atrium; type: functional, tissue-based; conditions: Cavia porcellus, Cardiac atrium
[6] = Activity against alternating current-induced arrhythmia in guinea pig left atrium at 50 uM; type: functional, Cavia porcellus, Cardiac atrium
tissue or blood = conditions: Cavia porcellus, Cardiac atrium
[7] = Negative chronotropic activity assessed as decrease in atrial rate in isolated guinea pig right atrium at 50 uM relative to control; type: functional, Cavia porcellus, Cardiac atrium; parameters: scale not given: the % may be the effect or the level left
[8] = Positive chronotropic activity in isolated guinea pig right atrium at 1 uM relative to control; type: functional, Cavia porcellus, Cardiac atrium
Heart [9] = assay: Intraventricular conduction time in spontaneously beating Langendorff-perfused guinea pig heart at 1 nM; type: functional, Cavia porcellus
Heart [10] = assay: Atrioventricular conduction time in spontaneously beating Langendorff-perfused guinea pig heart at 0.1 uM; type: functional, Cavia porcellus
Heart [11] = assay: Ventricular action potential duration in spontaneously beating Langendorff-perfused guinea pig heart at 1 nM; type: functional, Cavia porcellus
Aorta [12] = assay: Inhibition of calcium-induced contraction of potassium ion depolarized guinea pig aortic strips at 50 uM; type: functional; conditions: Cavia porcellus
Heart [13] = assay: Ventricular action potential duration in spontaneously beating Langendorff-perfused guinea pig heart at 10 nM; type: functional, Cavia porcellus
[14] = Negative inotropic activity assessed as decrease in developed tension in isolated guinea pig left atrium at 50 nM relative to control; type: functional, Cavia porcellus, Cardiac atrium; parameters: scale not given: the % may be the effect or the level left
Heart [15] = assay: Ventricular action potential duration in spontaneously beating Langendorff-perfused guinea pig heart at 10 uM; type: functional, Cavia porcellus
Heart [16] = assay: Heart rate in spontaneously beating Langendorff-perfused guinea pig heart at 0.1uM; type: functional, Cavia porcellus; parameters: unit: beats/min
Heart [17] = assay: Heart rate in spontaneously beating Langendorff-perfused guinea pig heart at 1 uM; type: functional, Cavia porcellus; parameters: unit not given here
Heart [18] = assay: Heart rate in spontaneously beating Langendorff-perfused guinea pig heart at 10 uM; type: functional, Cavia porcellus; parameters: unit not given here
Heart [19] = assay: Heart rate in spontaneously beating Langendorff-perfused guinea pig heart at 1 nM; type: functional, Cavia porcellus; parameters: unit not given here
Heart [20] = assay: Intraventricular conduction time in spontaneously beating Langendorff-perfused guinea pig heart at 10 nM; type: functional, Cavia porcellus
Heart [21] = assay: Heart rate in spontaneously beating Langendorff-perfused guinea pig heart at 10 nM; type: functional, Cavia porcellus; parameters: unit not given here
Heart [22] = assay: Atrioventricular conduction time in spontaneously beating Langendorff-perfused guinea pig heart at 10 uM; type: functional, Cavia porcellus
Heart [23] = assay: Atrioventricular conduction time in spontaneously beating Langendorff-perfused guinea pig heart at 10 nM; type: functional, Cavia porcellus
Heart [24] = assay: Intraventricular conduction time in spontaneously beating Langendorff-perfused guinea pig heart at 10 uM; type: functional, Cavia porcellus
Heart [25] = assay: Ventricular action potential duration in spontaneously beating Langendorff-perfused guinea pig heart at 0.1 uM; type: functional, Cavia porcellus
Heart [26] = assay: Ventricular action potential duration in spontaneously beating Langendorff-perfused guinea pig heart at 1 uM; type: functional, Cavia porcellus
[27] = Negative chronotropic activity assessed as decrease in atrial rate in isolated guinea pig right atrium at 10 uM relative to control; type: functional, Cavia porcellus, Cardiac atrium; parameters: scale not given: the % may be the effect or the level left
[28] = Activity against alternating current-induced arrhythmia in guinea pig left atrium at 10 uM; type: functional, Cavia porcellus, Cardiac atrium
Heart [29] = assay: Atrioventricular conduction time in spontaneously beating Langendorff-perfused guinea pig heart at 1 uM; type: functional, Cavia porcellus
Heart [30] = assay: Intraventricular conduction time in spontaneously beating Langendorff-perfused guinea pig heart at 0.1 uM; type: functional, Cavia porcellus
Heart [31] = assay: Atrioventricular conduction time in spontaneously beating Langendorff-perfused guinea pig heart at 1 nM; type: functional, Cavia porcellus
Heart [32] = assay: Intraventricular conduction time in spontaneously beating Langendorff-perfused guinea pig heart at 1 uM; type: functional, Cavia porcellus
[33] = Positive chronotropic activity in isolated guinea pig right atrium relative to control; type: functional, Cavia porcellus, Cardiac atrium
[34] = Negative inotropic activity assessed as decrease in developed tension in isolated guinea pig left atrium at 0.5 uM relative to control; type: functional, Cavia porcellus, Cardiac atrium; parameters: scale not given: the % may be the effect or the level left
[35] = Negative inotropic activity assessed as decrease in developed tension in isolated guinea pig left atrium at 0.1 uM relative to control; type: functional, Cavia porcellus, Cardiac atrium; parameters: scale not given: the % may be the effect or the level left
[36] = Activity against alternating current-induced arrhythmia in guinea pig left atrium at 5 uM; type: functional, Cavia porcellus, Cardiac atrium
[37] = Negative inotropic activity assessed as decrease in developed tension in isolated guinea pig left atrium at 1 uM relative to control; type: functional, Cavia porcellus, Cardiac atrium; parameters: scale not given: the % may be the effect or the level left
[38] = Positive chronotropic activity in isolated guinea pig right atrium at 5 uM relative to control; type: functional, Cavia porcellus, Cardiac atrium
[39] = Negative inotropic activity assessed as decrease in developed tension in isolated guinea pig left atrium at 10 uM relative to control; type: functional, Cavia porcellus, Cardiac atrium; parameters: scale not given: the % may be the effect or the level left
[40] = as §1; type: functional, Cavia porcellus, Cardiac atrium

## Cc1cc([N+](=O)[O-])cc(C)c1NC(=O)C[C@@H]1CCCN2CCCC[C@H]12
[1]
  EC50: 3460 nM
Aorta [2]
  inhibition at 100 µM: 4%
[3]
  Activity: 79%
Cavia porcellus
  Activity: inactive
[4]
  Activity: 25%

## Cc1cc(C(=O)c2ccccc2)cc(C)c1NC(=O)C[C@@H]1CCCN2CCCC[C@H]12
[5]
  EC50: 4810 nM
[1]
  EC50: 760 nM
[6]
  Activity: 55%
Tissue or blood
  EC50: 3980 nM
Aorta [2]
  inhibition at 100 µM: 31%
[3]
  Activity: 88%
[7]
  Activity: 70%

## Cc1cccc(C)c1NC(=O)C[C@@H]1CCCN2CCCC[C@H]12
[5]
  EC50: 5710 nM
[1]
  EC50: 620 nM
[6]
  Activity: 78%
Aorta [2]
  inhibition at 100 µM: 5%
[3]
  Activity: 95%
[8]
  Activity: 8%

## Cc1cccc(C)c1OC[C@@H]1CCCN2CCCC[C@H]12
[5]
  EC50: 460 nM
Heart [9]
  Activity: 30 ms
Heart [10]
  Activity: 66 ms
Heart [11]
  Activity: 155 ms
Aorta [12]
  inhibition at 50 µM: 26%
Heart [13]
  Activity: 160 ms
[14]
  Activity: 25%
Heart [15]
  Activity: 210 ms
Heart [16]
  Activity: 210
Heart [17]
  Activity: 206
Heart [18]
  Activity: 203
Heart [19]
  Activity: 218
Heart [20]
  Activity: 30 ms
Heart [21]
  Activity: 215
Heart [22]
  Activity: 70 ms
Heart [23]
  Activity: 64 ms
Heart [24]
  Activity: 31 ms
Heart [25]
  Activity: 170 ms
Heart [26]
  Activity: 200 ms
[27]
  Activity: 19%
[28]
  Activity: 176%
Heart [29]
  Activity: 68 ms
Heart [30]
  Activity: 28 ms
Heart [31]
  Activity: 60 ms
Heart [32]
  Activity: 30 ms

## C=C[C@H]1CN2CC[C@H]1C[C@@H]2[C@@H](O)c1ccnc2ccc(OC)cc12 [QUINIDINE]
[5]
  EC50: 10300 nM
Heart [9]
  Activity: 25 ms
Heart [10]
  Activity: 57 ms
[1]
  EC50: 3380 nM
Heart [16]
  Activity: 140
Heart [17]
  Activity: 123
[6]
  Activity: 69%
Heart [20]
  Activity: 27 ms
Tissue or blood
  EC50: 3990 nM
Heart [22]
  Activity: 70 ms
Aorta [2]
  inhibition at 100 µM: 30%
[3]
  Activity: 71%
Heart [23]
  Activity: 54 ms
Heart [24]
  Activity: 39 ms
Heart [25]
  Activity: 182 ms
Heart [26]
  Activity: 200 ms
[7]
  Activity: 86%
Heart [29]
  Activity: 60 ms
Heart [30]
  Activity: 31 ms
Heart [31]
  Activity: 53 ms
Heart [32]
  Activity: 35 ms

## CCN(CC)CCNC(=O)c1ccc(N)cc1 [PROCAINAMIDE]
[33]
  Activity: 9%
[1]
  EC50: 14 nM
[6]
  Activity: 11%
Aorta [2]
  inhibition at 100 µM: 3%
[34]
  Activity: 92%

## Cc1cccc(C)c1OC[C@H]1CCCN2CCCC[C@H]12
[35]
  Activity: 68%
[1]
  EC50: 14 nM
Aorta [2]
  inhibition at 100 µM: 21%
[27]
  Activity: 13%
[28]
  Activity: 35%

## Cc1cc(NS(C)(=O)=O)cc(C)c1OC[C@@H]1CCCN2CCCC[C@H]12
[5]
  EC50: 1250 nM
[1]
  EC50: 31 nM
[36]
  Activity: 60%
[37]
  Activity: 83%
Aorta [2]
  inhibition at 100 µM: 30%
[4]
  Activity: 12%

## CCN(CC)CC(=O)Nc1c(C)cccc1C [LIDOCAINE]
[1]
  EC50: 17 nM
[6]
  Activity: 34%
[37]
  Activity: 88%
Aorta [2]
  inhibition at 100 µM: 14%
[38]
  Activity: 29%

## Cc1cc(N)cc(C)c1OC[C@H]1CCCN2CCCC[C@H]12
[1]
  EC50: 630 nM
Aorta [12]
  inhibition at 50 µM: 32%
[39]
  Activity: 91%
[4]
  Activity: 44%
[28]
  Activity: 38%

## Cc1cc(NS(C)(=O)=O)cc(C)c1OC[C@H]1CCCN2CCCC[C@H]12
[1]
  EC50: 140 nM
[37]
  Activity: 64%
Aorta [2]
  inhibition at 100 µM: 23%
[40]
  Activity: 5%
[4]
  Activity: 34%
